Experimental data published in ChEMBL document CHEMBL1146102, “Synthesis and structure-activity relationship of 3,4'-bispyridinylethylenes: discovery of a potent 3-isoquinolinylpyridine inhibitor of protein kinase B (PKB/Akt) for the treatment of cancer” (Bioorg Med Chem Lett, 2006).

Legend:
[1] = target: T1, RAC-alpha serine/threonine-protein kinase (Homo sapiens, UniProt P31749); experiment: Inhibition of Akt1 at 50 uM
[2] = target: RAC-gamma serine/threonine-protein kinase (Homo sapiens, UniProt Q9Y243); experiment: Inhibition of Akt3 at 10 uM ATP
RAC-gamma serine/threonine-protein kinase, sequence (Q9Y243 whole entry): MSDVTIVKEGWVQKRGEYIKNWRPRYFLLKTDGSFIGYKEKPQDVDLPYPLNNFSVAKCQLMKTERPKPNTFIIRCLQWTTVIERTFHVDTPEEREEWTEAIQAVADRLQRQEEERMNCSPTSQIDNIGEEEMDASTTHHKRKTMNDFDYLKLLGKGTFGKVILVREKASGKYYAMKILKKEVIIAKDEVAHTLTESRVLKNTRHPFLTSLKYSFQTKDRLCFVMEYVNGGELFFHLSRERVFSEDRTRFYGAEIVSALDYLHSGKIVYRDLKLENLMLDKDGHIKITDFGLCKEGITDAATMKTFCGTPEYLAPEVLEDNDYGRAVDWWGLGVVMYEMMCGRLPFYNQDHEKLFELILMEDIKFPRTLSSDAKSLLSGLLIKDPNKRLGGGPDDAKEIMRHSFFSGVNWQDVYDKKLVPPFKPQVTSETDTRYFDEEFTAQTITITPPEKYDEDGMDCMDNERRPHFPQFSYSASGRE

[3] = target: Protein kinase C gamma type (Homo sapiens, UniProt P05129); experiment: Inhibition of PKCgamma at 10 uM ATP
[4] = target: Protein kinase C delta type (Homo sapiens, UniProt Q05655); experiment: Inhibition of PKCdelta at 10 uM ATP
Protein kinase C delta type, sequence (Q05655 whole entry): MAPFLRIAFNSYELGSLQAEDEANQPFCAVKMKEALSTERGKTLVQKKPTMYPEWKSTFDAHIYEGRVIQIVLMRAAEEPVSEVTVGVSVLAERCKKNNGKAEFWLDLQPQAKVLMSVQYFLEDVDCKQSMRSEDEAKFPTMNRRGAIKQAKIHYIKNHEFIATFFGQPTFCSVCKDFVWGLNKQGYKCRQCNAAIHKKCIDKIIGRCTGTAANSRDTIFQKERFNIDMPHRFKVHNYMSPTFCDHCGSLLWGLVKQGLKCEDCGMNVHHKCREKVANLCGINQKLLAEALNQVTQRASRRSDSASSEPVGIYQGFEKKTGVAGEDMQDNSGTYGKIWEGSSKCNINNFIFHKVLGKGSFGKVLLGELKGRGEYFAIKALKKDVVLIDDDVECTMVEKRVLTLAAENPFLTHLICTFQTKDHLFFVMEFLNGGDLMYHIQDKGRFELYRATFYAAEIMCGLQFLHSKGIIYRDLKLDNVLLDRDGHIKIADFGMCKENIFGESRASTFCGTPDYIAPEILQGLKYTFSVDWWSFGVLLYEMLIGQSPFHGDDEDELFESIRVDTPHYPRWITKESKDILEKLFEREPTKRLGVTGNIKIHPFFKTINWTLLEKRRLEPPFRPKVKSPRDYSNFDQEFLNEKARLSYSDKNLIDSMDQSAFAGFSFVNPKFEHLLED

[5] = target: Cyclin-dependent kinase 1 (Homo sapiens, UniProt P06493); experiment: Inhibition of CDK1 at 10 uM ATP
Cyclin-dependent kinase 1, sequence (P06493 whole entry): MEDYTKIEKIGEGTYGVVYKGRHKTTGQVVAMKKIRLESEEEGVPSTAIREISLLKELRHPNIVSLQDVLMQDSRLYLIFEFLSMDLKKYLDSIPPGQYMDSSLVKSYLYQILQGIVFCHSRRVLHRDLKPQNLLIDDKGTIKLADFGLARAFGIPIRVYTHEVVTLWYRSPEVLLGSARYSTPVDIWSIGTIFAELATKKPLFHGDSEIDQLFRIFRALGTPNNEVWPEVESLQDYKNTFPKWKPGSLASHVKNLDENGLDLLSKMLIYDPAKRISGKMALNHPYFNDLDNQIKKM

[6] = target: Mitogen-activated protein kinase 1 (Homo sapiens, UniProt P28482); experiment: Inhibition of ERK2 at 10 uM ATP
Mitogen-activated protein kinase 1, sequence (P28482 whole entry): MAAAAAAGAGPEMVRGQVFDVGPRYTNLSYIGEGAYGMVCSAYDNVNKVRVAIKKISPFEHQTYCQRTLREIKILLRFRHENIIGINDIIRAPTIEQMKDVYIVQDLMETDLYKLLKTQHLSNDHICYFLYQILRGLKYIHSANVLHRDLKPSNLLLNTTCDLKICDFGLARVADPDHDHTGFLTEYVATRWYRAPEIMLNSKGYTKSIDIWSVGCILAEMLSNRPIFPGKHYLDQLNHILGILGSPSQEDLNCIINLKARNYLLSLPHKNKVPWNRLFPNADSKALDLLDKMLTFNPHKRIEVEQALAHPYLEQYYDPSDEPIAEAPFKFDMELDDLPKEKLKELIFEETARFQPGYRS

Casein kinase II = Casein kinase II (Homo sapiens, UniProt P19784+P67870+P68400); experiment: Inhibition of CK2 at 10 uM ATP; type: protein-complex assay
Casein kinase II, sequence (P67870 whole entry): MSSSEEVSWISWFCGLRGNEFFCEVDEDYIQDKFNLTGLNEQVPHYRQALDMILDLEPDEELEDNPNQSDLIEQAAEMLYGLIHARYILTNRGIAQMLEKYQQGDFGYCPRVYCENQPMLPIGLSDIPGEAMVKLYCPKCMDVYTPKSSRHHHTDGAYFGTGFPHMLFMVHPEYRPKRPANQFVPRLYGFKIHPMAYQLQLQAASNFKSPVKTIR
Casein kinase II, sequence (P68400 whole entry): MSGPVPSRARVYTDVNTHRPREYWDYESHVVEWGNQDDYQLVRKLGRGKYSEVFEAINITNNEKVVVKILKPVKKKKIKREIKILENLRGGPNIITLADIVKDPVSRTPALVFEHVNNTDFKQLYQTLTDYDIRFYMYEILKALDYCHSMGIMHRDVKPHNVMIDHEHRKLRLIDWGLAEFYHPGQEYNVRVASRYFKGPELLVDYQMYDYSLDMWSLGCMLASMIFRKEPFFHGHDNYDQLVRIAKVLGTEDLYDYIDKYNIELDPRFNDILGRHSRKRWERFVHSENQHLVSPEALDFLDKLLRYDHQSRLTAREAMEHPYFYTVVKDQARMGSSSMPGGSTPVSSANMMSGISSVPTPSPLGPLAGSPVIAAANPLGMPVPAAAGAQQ
Casein kinase II, sequence (P19784 whole entry): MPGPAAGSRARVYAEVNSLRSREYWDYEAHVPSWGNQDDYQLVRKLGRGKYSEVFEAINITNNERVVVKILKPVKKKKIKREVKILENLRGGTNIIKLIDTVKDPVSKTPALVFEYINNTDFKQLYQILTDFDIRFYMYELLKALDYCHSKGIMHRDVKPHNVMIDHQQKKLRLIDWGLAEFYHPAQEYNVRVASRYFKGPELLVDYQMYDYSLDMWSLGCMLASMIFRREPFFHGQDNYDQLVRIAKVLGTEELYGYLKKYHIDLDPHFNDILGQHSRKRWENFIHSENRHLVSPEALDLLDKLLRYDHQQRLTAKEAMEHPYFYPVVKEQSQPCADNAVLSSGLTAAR

[7] = target: MAP kinase-activated protein kinase 2 (Homo sapiens, UniProt P49137); experiment: Inhibition of MAPKAP2 at 10 uM ATP
MAP kinase-activated protein kinase 2, sequence (P49137 whole entry): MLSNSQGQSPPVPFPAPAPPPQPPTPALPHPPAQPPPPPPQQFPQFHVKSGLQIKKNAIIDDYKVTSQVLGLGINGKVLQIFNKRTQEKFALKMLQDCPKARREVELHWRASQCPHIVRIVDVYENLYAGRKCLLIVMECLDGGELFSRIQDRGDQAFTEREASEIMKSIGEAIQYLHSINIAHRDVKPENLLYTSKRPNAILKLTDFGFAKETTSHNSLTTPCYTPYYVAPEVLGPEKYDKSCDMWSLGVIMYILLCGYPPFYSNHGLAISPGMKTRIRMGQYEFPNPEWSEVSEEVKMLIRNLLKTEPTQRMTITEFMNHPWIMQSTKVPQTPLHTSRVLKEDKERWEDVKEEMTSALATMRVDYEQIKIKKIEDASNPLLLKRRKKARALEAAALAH

[8] = target: T2, Serine/threonine-protein kinase Chk1 (Homo sapiens, UniProt O14757); experiment: Inhibition of Chk1 at 10 uM ATP
T2 sequence (O14757 whole entry): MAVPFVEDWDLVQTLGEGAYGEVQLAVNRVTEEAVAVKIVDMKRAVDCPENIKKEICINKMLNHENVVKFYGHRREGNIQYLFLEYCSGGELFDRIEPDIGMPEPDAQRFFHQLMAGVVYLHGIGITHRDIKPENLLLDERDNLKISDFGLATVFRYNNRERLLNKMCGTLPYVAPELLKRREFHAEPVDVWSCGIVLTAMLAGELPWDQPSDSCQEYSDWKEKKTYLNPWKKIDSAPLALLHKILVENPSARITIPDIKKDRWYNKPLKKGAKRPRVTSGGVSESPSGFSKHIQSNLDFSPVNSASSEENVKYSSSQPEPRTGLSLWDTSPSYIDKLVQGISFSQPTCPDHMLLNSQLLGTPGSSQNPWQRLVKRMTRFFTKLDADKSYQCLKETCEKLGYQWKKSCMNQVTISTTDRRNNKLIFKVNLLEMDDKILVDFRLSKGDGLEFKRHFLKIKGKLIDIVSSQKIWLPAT

[9] = target: Vascular endothelial growth factor receptor 3 (Homo sapiens, UniProt P35916); experiment: Inhibition of FLt4 at 1.0 mM ATP
[10] = target: Proto-oncogene tyrosine-protein kinase Src (Homo sapiens, UniProt P12931); experiment: Inhibition of SRC kinase at 1.0 mM ATP
Proto-oncogene tyrosine-protein kinase Src, sequence (P12931 2-536 limits assumed): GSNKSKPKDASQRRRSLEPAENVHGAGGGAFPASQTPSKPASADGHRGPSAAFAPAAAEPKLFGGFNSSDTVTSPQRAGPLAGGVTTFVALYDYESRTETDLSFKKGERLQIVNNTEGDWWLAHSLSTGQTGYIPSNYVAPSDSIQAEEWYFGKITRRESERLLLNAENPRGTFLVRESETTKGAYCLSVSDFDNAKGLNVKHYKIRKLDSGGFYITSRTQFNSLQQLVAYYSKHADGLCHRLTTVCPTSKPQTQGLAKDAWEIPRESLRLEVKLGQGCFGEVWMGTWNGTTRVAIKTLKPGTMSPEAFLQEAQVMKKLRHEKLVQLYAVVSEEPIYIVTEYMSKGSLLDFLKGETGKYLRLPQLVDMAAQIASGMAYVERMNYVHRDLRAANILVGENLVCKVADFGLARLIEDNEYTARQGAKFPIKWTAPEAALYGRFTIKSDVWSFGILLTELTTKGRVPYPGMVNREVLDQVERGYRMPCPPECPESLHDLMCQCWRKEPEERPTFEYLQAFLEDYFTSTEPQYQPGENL

[11] = target: T1, RAC-alpha serine/threonine-protein kinase; experiment: Activity against GSK3 phosphorylation in FL5.12-Akt1 cells; type: functional, cell-based

T1 sequence (P31749 whole entry): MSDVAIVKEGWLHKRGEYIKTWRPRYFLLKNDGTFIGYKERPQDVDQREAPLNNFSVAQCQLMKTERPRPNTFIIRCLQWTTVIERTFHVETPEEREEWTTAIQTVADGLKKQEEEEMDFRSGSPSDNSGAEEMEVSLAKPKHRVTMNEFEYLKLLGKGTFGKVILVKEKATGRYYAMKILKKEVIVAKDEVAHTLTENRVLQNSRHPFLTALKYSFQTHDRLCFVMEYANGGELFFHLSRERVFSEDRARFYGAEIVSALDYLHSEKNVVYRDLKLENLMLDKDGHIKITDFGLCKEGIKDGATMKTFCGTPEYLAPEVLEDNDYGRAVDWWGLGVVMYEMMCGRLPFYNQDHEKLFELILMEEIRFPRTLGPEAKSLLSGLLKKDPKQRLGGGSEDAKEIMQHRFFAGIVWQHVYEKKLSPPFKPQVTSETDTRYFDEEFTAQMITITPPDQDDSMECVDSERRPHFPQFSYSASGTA

With `N[C@H](COc1cncc(-c2ccccc2-c2ccncc2)c1)Cc1c[nH]c2ccccc12` the inhibition [1] was 10%.

`N[C@H](COc1cncc(NCc2cccnc2)c1)Cc1ccccc1` gave an inhibition [1] of 41%.

`N=C(N)c1ccc(-c2cncc(OC[C@@H](N)Cc3c[nH]c4ccccc34)c2)cc1` was tested, and the inhibition [1] was 41%.

In the case of `N[C@H](COc1cncc(-c2ccc([N+](=O)[O-])cc2)c1)Cc1c[nH]c2ccccc12`, the inhibition [1] is reported as 13%.

Work on `N[C@H](COc1cncc(-c2ccc3cnccc3c2)c1)Cc1c[nH]c2ccccc12` yielded an IC50 [2] of 0.035 µM, an IC50 [3] of 0.27 µM and an IC50 [4] of 6.1 µM. The IC50 [5] was 0.1 µM, the IC50 [6] was 0.91 µM and the IC50 (Casein kinase II) was 11.8 µM. The IC50 [7] was > 50 µM, the IC50 [8] was 4.2 µM and the IC50 [9] was > 50 µM. For the same molecule, the IC50 [10] was > 50 µM and the EC50 [11] was 1.5 µM.

Molecule `N[C@H](COc1cncc(-c2ccc(S(N)(=O)=O)cc2)c1)Cc1c[nH]c2ccccc12` has an inhibition [1] of 12%.

With `N[C@H](COc1cncc(NCc2ccncc2)c1)Cc1ccccc1` the inhibition [1] was 26%.

In the case of `N[C@H](COc1cncc(-c2cccc(S(N)(=O)=O)c2)c1)Cc1c[nH]c2ccccc12`, the inhibition [1] is reported as 0%.

For `N=C(NO)c1ccc(-c2cncc(OC[C@@H](N)Cc3c[nH]c4ccccc34)c2)cc1`, the inhibition [1] was 48%.

In the case of `N[C@H](COc1cncc(NC(=O)c2cccnc2)c1)Cc1ccccc1`, the inhibition [1] is reported as 26%.

In the case of `CC(=O)NCc1ccc(-c2cncc(OC[C@@H](N)Cc3c[nH]c4ccccc34)c2)cc1`, the inhibition [1] is reported as 3%.
